Laboratory results published in US20020045254A1, “Established cells” (priority 1998, published 2002).

Tests used:
GLUT-1 transport carrier = biological target: T1, GLUT-1 transport carrier (Rattus norvegicus, UniProt P11167); test: 3-OMG uptake by TR-BBB cell lines (glucose transport capability); format: in vitro ADME
T1 construct: endogenous in cells; host or cells: TR-BBB1, TR-BBB5, TR-BBB6, TR-BBB11, TR-BBB13, immortalized rat brain capillary endothelial cells
T1 sequence (P11167 1-492): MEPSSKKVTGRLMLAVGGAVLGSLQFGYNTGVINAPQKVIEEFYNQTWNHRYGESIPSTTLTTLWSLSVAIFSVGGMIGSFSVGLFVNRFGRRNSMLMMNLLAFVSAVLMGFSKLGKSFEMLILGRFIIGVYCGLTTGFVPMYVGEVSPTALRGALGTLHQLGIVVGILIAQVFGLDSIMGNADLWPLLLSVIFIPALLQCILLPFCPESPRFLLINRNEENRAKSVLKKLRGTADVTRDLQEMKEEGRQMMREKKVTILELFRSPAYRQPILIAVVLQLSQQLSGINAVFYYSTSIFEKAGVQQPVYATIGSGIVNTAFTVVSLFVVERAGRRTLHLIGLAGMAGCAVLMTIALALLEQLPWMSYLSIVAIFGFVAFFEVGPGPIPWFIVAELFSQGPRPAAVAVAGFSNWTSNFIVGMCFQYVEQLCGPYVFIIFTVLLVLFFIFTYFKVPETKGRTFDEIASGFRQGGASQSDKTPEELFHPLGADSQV

GLUT-1 transporter = biological target: T2, GLUT-1 transporter (Rattus norvegicus, UniProt P11167); test: 3-OMG uptake by TR-iBRB2 cells (glucose transport capability); format: in vitro ADME
T2 construct: endogenous in cells; host or cells: TR-iBRB2, immortalized rat retinal capillary endothelial cells (tsA58 SV40 large T transgenic rat)
T2 sequence (P11167 1-492): T1 sequence (P11167 1-492)
Experimental: The 3-OMG uptake was determined according to the following procedure. After removing medium by aspiration, 0.2 mL of an uptake buffer containing 232 kBq/mL of [^3H]3-OMG heated to 37° C. was added. […] After 10 seconds, the uptake buffer (1) was removed and the residue was washed with the uptake buffer (1) at 4° C. The same procedure was repeated except for changing the period of time before removing the uptake buffer (1) to 20 seconds, 30 seconds, or one minutes. The cells were solubilized in 1 mL of PBS containing 1% Triton X-100 and the radioactivity was measured using a liquid scintillation counter to confirm the linearity of the 3-OMG uptake capability. As a result, an uptake time of 20 seconds was set.
Next, the substrate concentration dependency of the 3-OMG uptake capability was examined. After washing the cells with the uptake buffer (1) heated to 37° C., 0.2 mL of the uptake buffer (1) containing 462 kBq/well of [^3H]3-OMG was added. Solutions containing 3-OMG at different concentrations were prepared by adding non-labeled 3-OMG to the uptake buffer (1) to make final concentrations of 0, 0.5, 1, 5, 10, 20, 30, and 50 mM. […] Next, the cells were solubilized overnight in 1 mL of PBS containing 1% Triton X-100 and the radioactivity was measured using a liquid scintillation counter.

TR-CSFB3 cells [1] = tested on: TR-CSFB3 cells
Experimental: The concentration dependency of the resulting cells on the L-proline transport was examined to determine the L-proline transport capability.
After the uptake reaction for 30 minutes and washing three times with PBS, 1 mL of PBS containing 1% Triton X-100 was added and the mixture was allowed to stand overnight to solubilize the cells. The radioactivity was measured using a liquid scintillation counter (LS-6500 made by Beckmann Co.).

TR-CSFB3 cells [2] = test: Inhibition of L-proline uptake of TR-CSFB3 cells by Na+-free (choline) buffer and ouabain; format: cell-based, rat; conditions: 30 minutes
Experimental: The L-proline uptake into the isolated choroid plexus is dependent on Na^+. […] However, because the experiment must be carried out under Na^+-free conditions, all Na^+ in the uptake buffer (1) was replaced with coline. […] Both reactions were carried out for 30 minutes. It was confirmed that L-proline uptake was inhibited as much as 98% under Na^+-free conditions. It was confirmed that 56% of L-proline uptake was inhibited by 1 mM ouabain. As a result, the L-proline uptake of TR-CSFB3 cells was confirmed to be Na^+-dependent.

rabbit choroid plexus = conditions: read-out: Km value from rabbit choroid plexus; L-proline, Coben L. A. et al. (1972); cited from earlier work

Compound: 3-o-methyl-D-glucose [3-OMG]
- Initial uptake rate (GLUT-1 transport carrier; TR-BBB1 cells): 8.12 ± 0.62 μ1/min/mg protein
- Initial uptake rate (GLUT-1 transport carrier; TR-BBB5 cells): 10.1 ± 1.32 μ1/min/mg protein
- Initial uptake rate (GLUT-1 transport carrier; TR-BBB6 cells): 7.07 ± 0.92 μ1/min/mg protein
- Initial uptake rate (GLUT-1 transport carrier; TR-BBB11 cells): 10.2 ± 0.62 μ1/min/mg protein
- Initial uptake rate (GLUT-1 transport carrier; TR-BBB13 cells): 8.96 ± 0.50 μ1/min/mg protein
- initial uptake rate of [3H]3-OMG (GLUT-1 transport carrier; span over TR-BBB1, TR-BBB5, TR-BBB6, TR-BBB11 and TR-BBB13 cells): 7.07-10.2 μl/min/mg protein
- maximum velocity constant (Vmax) of 3-OMG uptake (GLUT-1 transporter; 20 seconds uptake, 37° C., 0-50 mM 3-OMG): 45 nmol/min/mg protein
- Km (GLUT-1 transporter; read-out: Michaelis constant (Km) of 3-OMG uptake, 20 seconds uptake, 37° C., 0-50 mM 3-OMG): 5600 µM

Compound: O=C(O)[C@@H]1CCCN1 [L-proline]
- Vmax of L-proline uptake (TR-CSFB3 cells [1]; 30 minutes uptake, 0.005-20 mM L-proline): 2.4 nmol/min/mg protein
- Km (TR-CSFB3 cells [1]; read-out: Km of L-proline uptake, 30 minutes uptake, 0.005-20 mM L-proline): 1500 µM
- inhibition of L-proline uptake under Na+-free conditions (TR-CSFB3 cells [2]; all Na+ in uptake buffer replaced with choline): 98%
- Km (rabbit choroid plexus): 1100 µM

Compound: C[C@@H]1O[C@@H](O[C@H]2C[C@@H](O)[C@]3(CO)[C@H]4[C@H](O)C[C@]5(C)[C@@H](C6=CC(=O)OC6)CC[C@]5(O)[C@@H]4CC[C@]3(O)C2)[C@H](O)[C@H](O)[C@H]1O [ouabain]
- inhibition at 1000 µM (TR-CSFB3 cells [2]; Rattus norvegicus, 0.5 h, 1 mM ouabain): 56%
